Laboratory results published in the supplement of paper PMC10307832.

Key:
Test in all cases: relative viability (nuclei count vs DMSO), 5 days (fraction); higher = more cells survive
[1] = compound: CO[C@H]1C[C@@H]2CC[C@@H](C)[C@@](O)(O2)C(=O)C(=O)N2CCCC[C@H]2C(=O)O[C@H]([C@H](C)C[C@@H]2CC[C@@H](OCCO)[C@H](OC)C2)CC(=O)[C@H](C)/C=C(\C)[C@@H](O)[C@@H](OC)C(=O)[C@H](C)C[C@H](C)/C=C/C=C/C=C/1C [Everolimus] + CC(=O)c1c(C)c2cnc(Nc3ccc(N4CCNCC4)cn3)nc2n(C2CCCC2)c1=O [Palbociclib] (partner 0.5 µM)
Procedure, shortened: (§1)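 Five library-drug doses in √10 steps were combined with a fixed anchor-drug dose, or a single drug was given alone, by pin tool to lung cancer cell lines in 1536-well plates the day after seeding. Nuclei were stained and counted after 5 days. Relative viability is the nuclei count in treated wells over that in vehicle wells, taken as the median of duplicate plates.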

[2] = compound: CO[C@H]1C[C@@H]2CC[C@@H](C)[C@@](O)(O2)C(=O)C(=O)N2CCCC[C@H]2C(=O)O[C@H]([C@H](C)C[C@@H]2CC[C@@H](OCCO)[C@H](OC)C2)CC(=O)[C@H](C)/C=C(\C)[C@@H](O)[C@@H](OC)C(=O)[C@H](C)C[C@H](C)/C=C/C=C/C=C/1C [Everolimus] + COc1cc2c(Oc3ccc(NC(=O)C4(C(=O)Nc5ccc(F)cc5)CC4)cc3F)ccnc2cc1OCCCN1CCOCC1 [Foretinib] (partner 0.25 µM)
Procedure, shortened: as §1

[3] = compound: CO[C@H]1C[C@@H]2CC[C@@H](C)[C@@](O)(O2)C(=O)C(=O)N2CCCC[C@H]2C(=O)O[C@H]([C@H](C)C[C@@H]2CC[C@@H](OCCO)[C@H](OC)C2)CC(=O)[C@H](C)/C=C(\C)[C@@H](O)[C@@H](OC)C(=O)[C@H](C)C[C@H](C)/C=C/C=C/C=C/1C [Everolimus] + COc1cccc2cc(-c3nc([C@H]4CC[C@H](C(=O)O)CC4)n4ncnc(N)c34)[nH]c12 [OSI-027] (partner 0.5 µM)
Procedure, shortened: as §1

[4] = compound: CO[C@H]1C[C@@H]2CC[C@@H](C)[C@@](O)(O2)C(=O)C(=O)N2CCCC[C@H]2C(=O)O[C@H]([C@H](C)C[C@@H]2CC[C@@H](OCCO)[C@H](OC)C2)CC(=O)[C@H](C)/C=C(\C)[C@@H](O)[C@@H](OC)C(=O)[C@H](C)C[C@H](C)/C=C/C=C/C=C/1C [Everolimus]
Procedure, shortened: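 After an overnight hold at 37 °C, lung cancer cell lines in 1536-well plates were pinned with five library-drug doses (not always all listed), each √10 from the next, on vehicle-anchored plates. The cells stayed 5 days without fresh medium, then a one-step fix, permeabilisation and Hoechst stain preceded 4× imaging and MetaXpress nuclear counts. A plate passed only with control CV under 25% and at least one doubling. Viability is the median, over plates, of treated-well nuclei relative to vehicle-well nuclei.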

NCI-H838
relative viability ([1]; first compound 0.01 µM): 0.144
relative viability ([1]; first compound 0.03162 µM): 0.146
relative viability ([1]; first compound 0.1 µM): 0.159
relative viability ([1]; first compound 0.3162 µM): 0.174
relative viability ([1]; first compound 1 µM): 0.123
relative viability ([2]; first compound 0.01 µM): 0.586
relative viability ([2]; first compound 0.03162 µM): 0.629
relative viability ([2]; first compound 0.1 µM): 0.518
relative viability ([2]; first compound 0.3162 µM): 0.551
relative viability ([2]; first compound 1 µM): 0.56
relative viability ([3]; first compound 0.01 µM): 0.262
relative viability ([3]; first compound 0.03162 µM): 0.252
relative viability ([3]; first compound 0.1 µM): 0.233
relative viability ([3]; first compound 0.3162 µM): 0.259
relative viability ([3]; first compound 1 µM): 0.334
relative viability ([4]; 0.01 µM): 0.603
relative viability ([4]; 0.03162 µM): 0.561
relative viability ([4]; 0.1 µM): 0.468
relative viability ([4]; 0.3162 µM): 0.516
relative viability ([4]; 1 µM): 0.51

NCI-H1355
relative viability ([1]; first compound 0.01 µM): 0.229
relative viability ([1]; first compound 0.03162 µM): 0.233
relative viability ([1]; first compound 0.1 µM): 0.207
relative viability ([1]; first compound 0.3162 µM): 0.213
relative viability ([1]; first compound 1 µM): 0.21
relative viability ([2]; first compound 0.01 µM): 0.606
relative viability ([2]; first compound 0.03162 µM): 0.548
relative viability ([2]; first compound 0.1 µM): 0.477
relative viability ([2]; first compound 0.3162 µM): 0.421
relative viability ([2]; first compound 1 µM): 0.482
relative viability ([3]; first compound 0.01 µM): 0.281
relative viability ([3]; first compound 0.03162 µM): 0.258
relative viability ([3]; first compound 0.1 µM): 0.231
relative viability ([3]; first compound 0.3162 µM): 0.299
relative viability ([3]; first compound 1 µM): 0.241
relative viability ([4]; 0.01 µM): 0.666
relative viability ([4]; 0.03162 µM): 0.537
relative viability ([4]; 0.1 µM): 0.552
relative viability ([4]; 0.3162 µM): 0.628
relative viability ([4]; 1 µM): 0.48

NCI-H1395
relative viability ([1]; first compound 0.01 µM): 0.482
relative viability ([1]; first compound 0.03162 µM): 0.444
relative viability ([1]; first compound 0.1 µM): 0.466
relative viability ([1]; first compound 0.3162 µM): 0.515
relative viability ([1]; first compound 1 µM): 0.429
relative viability ([2]; first compound 0.01 µM): 0.901
relative viability ([2]; first compound 0.03162 µM): 0.683
relative viability ([2]; first compound 0.1 µM): 0.727
relative viability ([2]; first compound 0.3162 µM): 0.617
relative viability ([2]; first compound 1 µM): 0.627
relative viability ([3]; first compound 0.01 µM): 0.596
relative viability ([3]; first compound 0.03162 µM): 0.555
relative viability ([3]; first compound 0.1 µM): 0.544
relative viability ([3]; first compound 0.3162 µM): 0.482
relative viability ([3]; first compound 1 µM): 0.54
relative viability ([4]; 0.01 µM): 0.765
relative viability ([4]; 0.03162 µM): 0.627
relative viability ([4]; 0.1 µM): 0.683
relative viability ([4]; 0.3162 µM): 0.647
relative viability ([4]; 1 µM): 0.727

NCI-H1437
relative viability ([1]; first compound 0.01 µM): 0.319
relative viability ([1]; first compound 0.03162 µM): 0.313
relative viability ([1]; first compound 0.1 µM): 0.253
relative viability ([1]; first compound 0.3162 µM): 0.239
relative viability ([1]; first compound 1 µM): 0.248
relative viability ([2]; first compound 0.01 µM): 1.29
relative viability ([2]; first compound 0.03162 µM): 1.18
relative viability ([2]; first compound 0.1 µM): 1.21
relative viability ([2]; first compound 0.3162 µM): 1.23
relative viability ([2]; first compound 1 µM): 1.15
relative viability ([3]; first compound 0.01 µM): 0.379
relative viability ([3]; first compound 0.03162 µM): 0.363
relative viability ([3]; first compound 0.1 µM): 0.344
relative viability ([3]; first compound 0.3162 µM): 0.365
relative viability ([3]; first compound 1 µM): 0.487
relative viability ([4]; 0.01 µM): 0.875
relative viability ([4]; 0.03162 µM): 0.795
relative viability ([4]; 0.1 µM): 0.767
relative viability ([4]; 0.3162 µM): 0.738
relative viability ([4]; 1 µM): 0.621

NCI-H1650
relative viability ([1]; first compound 0.01 µM): 0.305
relative viability ([1]; first compound 0.03162 µM): 0.293
relative viability ([1]; first compound 0.1 µM): 0.304
relative viability ([1]; first compound 0.3162 µM): 0.278
relative viability ([1]; first compound 1 µM): 0.238
relative viability ([2]; first compound 0.01 µM): 0.827
relative viability ([2]; first compound 0.03162 µM): 0.928
relative viability ([2]; first compound 0.1 µM): 0.973
relative viability ([2]; first compound 0.3162 µM): 0.966
relative viability ([2]; first compound 1 µM): 1.01
relative viability ([3]; first compound 0.01 µM): 0.489
relative viability ([3]; first compound 0.03162 µM): 0.444
relative viability ([3]; first compound 0.1 µM): 0.468
relative viability ([3]; first compound 0.3162 µM): 0.484
relative viability ([3]; first compound 1 µM): 0.574
relative viability ([4]; 0.01 µM): 0.761
relative viability ([4]; 0.03162 µM): 0.879
relative viability ([4]; 0.1 µM): 0.828
relative viability ([4]; 0.3162 µM): 0.85
relative viability ([4]; 1 µM): 0.868

NCI-H1651
relative viability ([1]; first compound 0.01 µM): 0.474
relative viability ([1]; first compound 0.03162 µM): 0.405
relative viability ([1]; first compound 0.1 µM): 0.363
relative viability ([1]; first compound 0.3162 µM): 0.351
relative viability ([1]; first compound 1 µM): 0.341
relative viability ([2]; first compound 0.01 µM): 0.523
relative viability ([2]; first compound 0.03162 µM): 0.556
relative viability ([2]; first compound 0.1 µM): 0.562
relative viability ([2]; first compound 0.3162 µM): 0.431
relative viability ([2]; first compound 1 µM): 0.558
relative viability ([3]; first compound 0.01 µM): 0.411
relative viability ([3]; first compound 0.03162 µM): 0.439
relative viability ([3]; first compound 0.1 µM): 0.384
relative viability ([3]; first compound 0.3162 µM): 0.41
relative viability ([3]; first compound 1 µM): 0.58
relative viability ([4]; 0.01 µM): 0.749
relative viability ([4]; 0.03162 µM): 0.71
relative viability ([4]; 0.1 µM): 0.691
relative viability ([4]; 0.3162 µM): 0.663
relative viability ([4]; 1 µM): 0.645

NCI-H1666
relative viability ([1]; first compound 0.01 µM): 0.567
relative viability ([1]; first compound 0.03162 µM): 0.642
relative viability ([1]; first compound 0.1 µM): 0.599
relative viability ([1]; first compound 0.3162 µM): 0.693
relative viability ([1]; first compound 1 µM): 0.631
relative viability ([2]; first compound 0.01 µM): 0.885
relative viability ([2]; first compound 0.03162 µM): 0.925
relative viability ([2]; first compound 0.1 µM): 0.972
relative viability ([2]; first compound 0.3162 µM): 0.926
relative viability ([2]; first compound 1 µM): 0.875
relative viability ([3]; first compound 0.01 µM): 0.722
relative viability ([3]; first compound 0.03162 µM): 0.725
relative viability ([3]; first compound 0.1 µM): 0.719
relative viability ([3]; first compound 0.3162 µM): 0.811
relative viability ([3]; first compound 1 µM): 0.722
relative viability ([4]; 0.01 µM): 0.952
relative viability ([4]; 0.03162 µM): 0.858
relative viability ([4]; 0.1 µM): 0.853
relative viability ([4]; 0.3162 µM): 0.886
relative viability ([4]; 1 µM): 0.898
